# Earlier results in patent publication US10052384B2, “Liquid antiseptic compositions containing iodine and a sugar and/or sugar alcohol” (3M INNOVATIVE PROPERTIES COMPANY, priority 2007, dated 2018).
# Conditions: 25° C.
structure (smiles),measurement,value
II [elemental iodine],Solubility in water,0.03 wt-%
